# Measurements reported in patent US20220348590A1, “CYCLOOXYGENASE-2 INHIBITORS AND USES THEREOF” (The Board Institute, Inc., priority 2019, published 2022).
# Molecular target: T1, COX2 (Rattus norvegicus, UniProt P35355)
# T1 construct: in-vitro autoradiography in rat brain slices; from tissue; host or cells: rat brain slices
# T1 sequence (P35355 18-604): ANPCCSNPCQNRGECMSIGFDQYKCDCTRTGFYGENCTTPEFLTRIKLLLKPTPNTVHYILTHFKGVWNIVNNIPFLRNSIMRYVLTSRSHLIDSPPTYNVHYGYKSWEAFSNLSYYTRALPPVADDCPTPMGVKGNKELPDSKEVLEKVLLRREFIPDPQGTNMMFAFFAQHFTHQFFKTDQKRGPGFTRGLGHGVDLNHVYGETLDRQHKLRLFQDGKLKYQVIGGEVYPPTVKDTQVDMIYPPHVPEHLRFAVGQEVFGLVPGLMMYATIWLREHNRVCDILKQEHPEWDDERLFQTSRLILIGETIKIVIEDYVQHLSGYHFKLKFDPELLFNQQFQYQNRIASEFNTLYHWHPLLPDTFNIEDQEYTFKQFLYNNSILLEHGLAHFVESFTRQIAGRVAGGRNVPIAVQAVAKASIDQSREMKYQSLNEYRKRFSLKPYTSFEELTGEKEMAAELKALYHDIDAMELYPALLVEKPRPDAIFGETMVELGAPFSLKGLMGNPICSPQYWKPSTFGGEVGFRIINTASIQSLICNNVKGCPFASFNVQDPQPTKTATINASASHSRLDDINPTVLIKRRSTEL
# Experiment: in-vitro autoradiography in rat brain slices (self-block)
# Type: binding
# Source text: Three ligands have been evaluated with in-vitro autoradiography in rat brain slices. Radiolabeling was accomplished via methylation of either a sulfinate precursor ([^11C]Rofecoxib), hydroxyl precursor ([^11C]MC1) or thiol precursor ([^11C]98) using [^11C]-methyl iodide and offers chemical flexibility for radiolabeling of future candidates. […] This translated into a ˜2-fold increase in COX2 specific binding in a rat brain slice in-vitro autoradiography. […] These properties enable us to better understand the contribution of potency and free fraction to the ligand's specific binding.
# Three newly synthesized COX2 ligands were successfully radiolabeled using this strategy and first evaluated by in-vitro autoradiography in rat brain slices using self-block experiments (FIG. 5). […] [^11C]36 was also evaluated for specific binding using self-block experiments in human post-mortem brain tissues (globus pallidus) from three Huntington's disease (HD) patients (FIG. 6). COX2 protein levels were quantified using immunostaining and defined as high, medium and low, respectively.
smiles,measurement,setting,value
CS(=O)(=O)c1ccc(-c2cncc(NCc3cccs3)n2)cc1 [Compound 98],increase in COX2 specific binding,"rat brain slice in-vitro autoradiography, compared to MC1",~2 fold
same,specific binding,"rat brain slices in vitro autoradiography, self-block, compared to earlier tracers",increase in specific binding
